Reference: patent US7452894B2, “Purine derivatives as purinergic receptor antagonists” (Vernalis Research Limited, priority 2001, dated 2008)

Molecular target: human adenosine A2A receptors (Homo sapiens, UniProt P29274)
Experiment: Binding affinities at hA2A receptors, displacement of [3H]-CGS 21680
Settings: not given

Chain of human adenosine A2A receptors (P29274 whole entry): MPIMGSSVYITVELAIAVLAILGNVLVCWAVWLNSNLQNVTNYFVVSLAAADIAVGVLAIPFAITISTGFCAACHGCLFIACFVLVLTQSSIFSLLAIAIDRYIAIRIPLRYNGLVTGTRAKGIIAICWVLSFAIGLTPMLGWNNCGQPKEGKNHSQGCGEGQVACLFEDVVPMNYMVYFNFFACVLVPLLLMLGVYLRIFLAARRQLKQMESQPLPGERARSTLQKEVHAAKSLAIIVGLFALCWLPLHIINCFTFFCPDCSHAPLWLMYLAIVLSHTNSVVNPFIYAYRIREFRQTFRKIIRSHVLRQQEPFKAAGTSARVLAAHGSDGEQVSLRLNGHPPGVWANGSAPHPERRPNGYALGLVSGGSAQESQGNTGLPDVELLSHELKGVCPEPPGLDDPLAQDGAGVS

SMILES | Ki
CCCCNC(=O)n1cnc2c(-c3ccco3)nc(N)nc21 [Example 36, 2-Amino-N-n-butyl-6-(2-furyl)-9H-purine-9-carboxamide] | 7 nM
CN(C)c1nc(-c2ccco2)c2nc[nH]c2n1 [Example 3, N,N-Dimethyl-6-(2-furyl)-1H-purine-2-amine] | 23 nM
CCCCCNC(=O)n1cnc2c(-c3ccco3)nc(N)nc21 [Example 52, 2-Amino-6-(2-furyl)-N-n-pentyl-9H-purine-9-carboxamide] | 5 nM
Nc1nc(-c2ccco2)c2ncn(C(=O)NCc3ccc(Cl)c(Cl)c3)c2n1 [Example 80, 2-Amino-N-(3,4-dichlorobenzyl)-6-(2-furyl)-9H-purine-9-carboxamide] | 5 nM
Nc1nc(-c2ccco2)c2ncn(CCCc3cccnc3)c2n1 [Example 189, 6-(2-Furyl)-9-(3-(3-pyridyl)propyl)-9H-purine-2-amine] | 21 nM
Nc1nc(-c2ccco2)c2ncn(C(=O)OCc3ccccc3)c2n1 [Example 106, Benzyl 2-amino-6-(2-furyl)-9H-purine-9-carboxylate] | 1 nM
Nc1nc(-c2ccco2)c2ncn(Cc3ccccc3F)c2n1 [Example 157, 9-(2-Fluorobenzyl)-6-(2-furyl)-9H-purine-2-amine] | 4 nM
CN(Cc1ccccc1)C(=O)n1cnc2c(-c3ccco3)nc(N)nc21 [Example 118, 2-Amino-N-benzyl-6-(2-furyl)-N-methyl-9H-purine-9-carboxamide] | 3 nM
COc1ccc(CNC(=O)n2cnc3c(-c4ccco4)nc(N)nc32)cc1 [Example 37, 2-Amino-6-(2-furyl)-N-(4-methoxybenzyl)-9H-purine-9-carboxamide] | 4 nM
Cc1ccc(Cn2cnc3c(-c4ccco4)nc(N)nc32)cc1 [Example 127, 6-(2-Furyl)-9-(4-methylbenzyl)-9H-purine-2-amine] | 9 nM

Continued, values first:

Ki | SMILES
35 nM | Cc1cccc(Cn2cnc3c(-c4ccco4)nc(N)nc32)n1 [Example 212, 6-(2-Furyl)-9-(6-methyl-2-pyridyl)methyl-9H-purine-2-amine]
7 nM | Nc1nc(-c2ccco2)c2ncn(S(=O)(=O)/C=C/c3ccccc3)c2n1 [Example 185, 6-(2-Furyl)-9-(2-phenylethenyl)sulphonyl-9H-purine-2-amine]
12 nM | Nc1nc(-c2ccco2)c2ncn(C/C=C/c3ccccc3)c2n1 [Example 57, 6-(2-Furyl)-9-(1-phenyl-1-propene-3-yl)-9H-purine-2-amine]
7 nM | Nc1nc(-c2ccco2)c2ncn(Cc3ccc(Cl)s3)c2n1 [Example 240, 9-(5-Chloro-2-thienylmethyl)-6-(2-furyl)-9H-purine-2-amine]
7 nM | Cc1cccc(Cn2cnc3c(-c4ccco4)nc(N)nc32)c1 [Example 126, 6-(2-Furyl)-9-(3-methylbenzyl)-9H-purine-2-amine]
6 nM | Cc1ccc(Cn2cnc3c(-c4ccc(C)o4)nc(N)nc32)cc1 [Example 208, 9-(4-Methylbenzyl)-6-(5-methyl-2-furyl)-9H-purine2-amine]
24 nM | Nc1cccc(Cn2cnc3c(-c4ccco4)nc(N)nc32)c1 [Example 192, 9-(3-Aminobenzyl)-6-(2-furyl)-9H-purine-2-amine]
4 nM | Cn1cnc(S(=O)(=O)Nc2ccccc2Cn2cnc3c(-c4ccco4)nc(N)nc32)c1 [Example 235, 6-(2-Furyl)-9-(2-(1-methyl-1H-imidazol-4-ylsulphonylamino)benzyl)-9H-purine-2-amine]
11 nM | Nc1nc(-c2ccco2)c2ncn(Cc3cc([N+](=O)[O-])ccc3F)c2n1 [Example 259, 9-(2-Fluoro-5-nitrobenzyl)-6-(2-furyl)-9H-purine-2-amine]
8 nM | Nc1nc(-c2ccco2)c2ncn(S(=O)(=O)c3ccc(Br)cc3)c2n1 [Example 162, 9-(4-Bromophenyl)sulphonyl-6-(2-furyl)-9H-purine-2-amine]
36 nM | Nc1nc(-c2ccco2)c2ncn(CC(=O)Nc3cccc(Cl)c3)c2n1 [Example 141, 2-Amino-N-(3-chlorophenyl)-6-(2-furyl)-9H-purine-9-acetamide]
6 nM | Nc1nc(-c2ccco2)c2ncn(Cc3cccc(Cl)c3)c2n1 [Example 125, 9-(3-Chlorobenzyl)-6-(2-furyl)-9H-purine-2-amine]
4 nM | Nc1nc(-c2ccco2)c2ncn(C(=O)NCc3ccc(Cl)cc3Cl)c2n1 [Example 93, 2-Amino-N-(2,4-dichlorobenzyl)-6-(2-furyl)-9H-purine-9-carboxamide]

Same assay, conditions: human adenosine A2A receptor, radioligand [3H]-CGS 21680

SMILES | Ki
C[C@H](NC(=O)n1cnc2c(-c3ccco3)nc(N)nc21)c1ccccc1 [Example 45, (1S)-2-Amino-6-(2-furyl)-N-(1-phenyethyl)-9H-purine-9-carboxamide] | 2 nM
Nc1nc(-c2ccco2)c2ncn(C(=O)NCCc3ccccc3)c2n1 [Example 92, 2-Amino-6-(2-furyl)-N-(2-phenylethyl)-9H-purine-9-carboxamide] | 6 nM
Cc1cccc(CNC(=O)n2cnc3c(-c4ccco4)nc(N)nc32)c1 [Example 47, 2-Amino-6-(2-furyl)-N-(3-methylbenzyl)-9H-purine-9-carboxamide] | 1 nM
Cc1ccc(CNC(=O)n2cnc3c(-c4ccco4)nc(N)nc32)cc1 [Example 38, 2-Amino-6-(2-furyl)-N-(4-methylbenzyl)-9H-purine-9-carboxamide] | 1 nM
COc1nc(-c2ccco2)c2ncn(C(=O)NCc3ccccc3)c2n1 [Example 112, N-Benzyl-2-methoxy-6-(2-furyl)-9H-purine-9-carboxamide] | 8 nM

Further lines, results first:

Ki | SMILES
1 nM | Nc1nc(-c2ccco2)c2ncn(C(=O)NCc3ccccc3)c2n1 [Example 26, 2-Amino-N-benzyl-6-(2-furyl)-9H-purine-9-carboxamide]
1 nM | Nc1nc(-c2ccco2)c2ncn(C(=O)NCc3ccccc3Cl)c2n1 [Example 39, 2-Amino-N-(2-chlorobenzyl)-6-(2-furyl)-9H-purine-9-carboxamide]
1 nM | Nc1nc(-c2ccco2)c2ncn(C(=O)NCc3cccs3)c2n1 [Example 202, 2-Amino-6-(2-furyl)-N-(2-thienylmethyl)-9H-purine-9-carboxamide]
2 nM | Nc1nc(-c2ccco2)c2ncn(C(=O)NCc3ccco3)c2n1 [Example 201, 2-Amino-6-(2-furyl)-N-(2-furylmethyl)-9H-purine-9-carboxamide]
1 nM | Nc1nc(-c2ccco2)c2ncn(C(=O)NCc3ccc(F)cc3)c2n1 [Example 79, 2-Amino-N-(4-fluorobenzyl)-6-(2-furyl)-9H-purine-9-carboxamide]

Test system: not given
Experiment: not given
Settings: not given

SMILES | melting point
Nc1nc(-c2ccco2)c2ncn(C(=O)OCc3ccccc3)c2n1 [Example 106, Benzyl 2-amino-6-(2-furyl)-9H-purine-9-carboxylate] | 161.7 °C (dec.)
Cn1cccc1-c1nc(N)nc2c1ncn2C(=O)NCc1ccccc1 [Example 134, 2-Amino-N-benzyl-6-(1-methyl-1H-pyrrol-2-yl)-9H-purine-9-carboxamide] | > 230 °C (dec.)
CC(C)(C)OC(=O)n1cnc2c(-c3ccco3)nc(Cl)nc21 [Example 7, tert-Butyl 2-chloro-6-(2-furyl)-9H-purine-9-carboxylate] | > 305 °C (dec.)
Cc1noc(C)c1S(=O)(=O)Nc1ccccc1Cn1cnc2c(-c3ccco3)nc(N)nc21 [Example 239, 6-(2-Furyl)-9-(2-(3,5-dimethylisoxazol-4-ylsulphonylamino)benzyl)-9H-purine-2-amine] | 251.4 to 253.1 °C
O=C(NC1CCCCC1)n1cnc2c(-c3ccco3)nc(Cl)nc21 [Example 31, 2-Chloro-N-cyclohexyl-6-(2-furyl)-9H-purine-9-carboxamide] | 177.4 to 177.8 °C
CC(C)(C)OC(=O)n1ccc2c(Cn3cnc4c(-c5ccco5)nc(N)nc43)cccc21 [Example 270, tert-butyl 4-(2-amino-6-(2-furyl)-1H-purine-9-ylmethyl)indole-1-carboxylate] | 190.4 to 190.5 °C

Continued, values first:

melting point | SMILES
210.9 to 211.5 °C | Nc1nc(-c2ccco2)c2ncn(Cc3ccc(Cl)s3)c2n1 [Example 240, 9-(5-Chloro-2-thienylmethyl)-6-(2-furyl)-9H-purine-2-amine]
210 to 220 °C (dec.) | Cc1ccc(Cn2cnc3c(-c4ccc(C)o4)nc(N)nc32)cc1 [Example 208, 9-(4-Methylbenzyl)-6-(5-methyl-2-furyl)-9H-purine2-amine]
253.1 to 257.1 °C | Cn1cnc(S(=O)(=O)Nc2ccccc2Cn2cnc3c(-c4ccco4)nc(N)nc32)c1 [Example 235, 6-(2-Furyl)-9-(2-(1-methyl-1H-imidazol-4-ylsulphonylamino)benzyl)-9H-purine-2-amine]
278 °C (dec.) | Nc1nc(-c2ccco2)c2ncn(CC(=O)Nc3cccc(Cl)c3)c2n1 [Example 141, 2-Amino-N-(3-chlorophenyl)-6-(2-furyl)-9H-purine-9-acetamide]
321.5 to 321.6 °C | NC(=O)Cn1cnc2c(-c3ccco3)nc(N)nc21 [Example 87, 2-Amino-6-(2-furyl)-9H-purine-9-acetamide]
177.6 to 178.2 °C | Nc1nc(-c2ccco2)c2ncn(C(=O)NC3CCCCC3)c2n1 [Example 19, 2-Amino-N-cyclohexyl-6-(2-furyl)-9H-purine-9-carboxamide]
170 to 171.9 °C | Nc1nc(-c2ccco2)c2ncn(Cc3ccc(C(=O)NCc4ccccc4)cc3)c2n1 [Example 227, 4-(2-Amino-6-(2-furyl)-9H-purine-9-ylmethyl)-N-benzylbenzamide]
238.3 to 238.4 °C | Nc1nc(-c2ccco2)c2ncn(CC(=O)NCc3ccccn3)c2n1 [Example 119, 2-Amino-6-(2-furyl)-N-(2-pyridylmethyl)-9H-purine-9-acetamide]
287.1 to 288.2 °C | COc1ccc(NC(=O)Cn2cnc3c(-c4ccco4)nc(N)nc32)c(C)c1 [Example 169, 2-Amino-6-(2-furyl)-N-(4-methoxy-2-methylphenyl)-9H-purine-9-acetamide]
79.6 °C (dec.) | COc1nc(-c2ccco2)c2ncn(COCC[Si](C)(C)C)c2n1
219.5 to 219.7 °C | COC(=O)c1ccc(Cn2cnc3c(-c4ccco4)nc(N)nc32)cc1 [Example 215, Methyl 4-(2-amino-6-(2-furyl)-9H-purine-9-ylmethyl)benzoate]
300 °C (dec.) | Cn1cncc1-c1nc(N)nc2[nH]cnc12 [Example 209, 6-(1-Methyl-1H-imidazol-5-yl)-1H-purine-2-amine]
299.2 to 299.3 °C | Cc1ccccc1NC(=O)Cn1cnc2c(-c3ccco3)nc(N)nc21 [Example 140, 2-Amino-6-(2-furyl)-N-(2-methylphenyl)-9H-purine-9-acetamide]
171.2 to 171.3 °C | CS(=O)(=O)Nc1cccc(Cn2cnc3c(-c4ccco4)nc(N)nc32)c1 [Example 217, 6-(2-Furyl)-9-(3-methanesulphonylaminobenzyl)-9H-purine-2-amine]
> 300 °C (dec.) | Nc1nc(-c2ccco2)c2ncn(C(=O)C3CCCCC3)c2n1 [Example 28, 9-Cyclohexylcarbonyl-6-(2-furyl)-9H-purine-2-amine]
